The results in this text go back to ChEMBL document CHEMBL1130884, “Synthesis of novel antifungal agents (2)” (1998).

Values after ≈ are worked out from the molar mass of the structure shown.

The subject of test [1] is Aspergillus fumigatus. Description: Compound was tested in vitro for antifungal activity against Aspergillus fumigatus (CF1003). Format: functional.
Test [2] deals with Candida albicans. Description: Compound was tested for in vitro antifungal activity against Candida albicans (CY3003). Format: functional.
The subject of test [3] is Mus musculus. Description: Compound was tested for antifungal activity by measuring systemic candidosis in mice on 7th day upon single peroral administration. Format: functional. The note with it: po.
The subject of test [4] is Cryptococcus neoformans. In words: Compound was tested for in vitro antifungal activity against Cryptococcus neoformans (CY1057).

In general, IC80 refers to the concentration needed for an effect of 80%. Low readings indicate an effect from little substance, high ones a need for much substance. One may read the ED50 as the midpoint of the dose-response relation. For the molecule `COC1[C@@H](Cn2cncn2)[C@H](COc2ccc(OC(C)(C)C)cc2)CC[C@@]1(C)CCn1ccnc1` (stereo partly specified), the 80% effect concentration (IC80) in test [1] amounted to 84 µg/mL (≈ 174 µM); in test [2] it was 0.08 µg/mL (≈ 0.166 µM); in test [4], 0.24 µg/mL (≈ 0.498 µM). Besides, the ED50 in test [3] is 50 mg/kg.

As for `COCC[C@]1(C)CC[C@@H](COc2ccc(OC(C)(C)C)cc2)[C@H](Cn2cncn2)/C1=N/OC`, the values for the concentration for an effect of 80% (IC80) in test [1], in test [2] and in test [4] were 0.6 µg/mL (≈ 1.31 µM), 0.05 µg/mL (≈ 0.109 µM) and 1 µg/mL (≈ 2.18 µM), respectively. Moreover, the median effective dose (ED50) in test [3] was above 100 mg/kg.

In the case of `COC1[C@@H](Cn2cncn2)[C@H](COc2ccc(OC(C)(C)C)cc2)CC[C@@]1(C)CCS(C)(=O)=O` (stereo partly specified), the concentration for an effect of 80% (IC80) in test [1] is above 200 µg/mL; in test [2], 0.7 µg/mL (≈ 1.42 µM); in test [4], 0.38 µg/mL (≈ 0.77 µM). The same molecule came in with a 50% effective dose (ED50) in test [3] of 50 mg/kg.

As to `CO[C@@H]1[C@@H](Cn2cncn2)[C@H](COc2ccc(OC(C)(C)C)cc2)CC[C@@]1(C)CCSc1nccn1C`, the IC80 worked out at 36 µg/mL (≈ 68.2 µM) in test [1], 0.5 µg/mL (≈ 0.947 µM) in test [2] and 0.9 µg/mL (≈ 1.71 µM) in test [4]. Moreover, the ED50 in test [3] is 50 mg/kg.

On to `CO/N=C1/[C@@H](Cn2cncn2)[C@H](COc2ccc(OC(C)(C)C)cc2)CC[C@@]1(C)CCSc1ncccn1`, for which the IC80 in test [1] was 2.6 µg/mL (≈ 4.83 µM); in test [2], 0.85 µg/mL (≈ 1.58 µM); in test [4] it was 1.1 µg/mL (≈ 2.04 µM). In addition, the median effective dose (ED50) in test [3] was above 100 mg/kg.

Consider `COC1[C@@H](Cn2cncn2)[C@H](COc2ccc(OC(C)(C)C)cc2)CC[C@@]1(C)CCN1CCOCC1` (stereo partly specified), for which the IC80 amounted to 158 µg/mL (≈ 316 µM) in test [1], 0.03 µg/mL (≈ 0.0599 µM) in test [2] and 0.02 µg/mL (≈ 0.0399 µM) in test [4]. Besides, it took a dose of 50 mg/kg to reach the 50% effect level in test [3] (ED50).

With `OC(Cn1cncn1)(Cn1cncn1)c1ccc(F)cc1F` [FLUCONAZOLE], the figures for the IC80 in test [1], in test [2] and in test [4] were above 200 µg/mL, 1.4 µg/mL (≈ 4.57 µM) and 3.6 µg/mL (≈ 11.8 µM), respectively. Further, the 50% effective dose (ED50) in test [3] was found to be 5.4 mg/kg.

As for `CSCC[C@]1(C)CC[C@@H](COc2ccc(OC(C)(C)C)cc2)[C@H](Cn2cncn2)/C1=N/O`, the IC80 worked out at 0.45 µg/mL (≈ 0.977 µM) in test [1], 0.18 µg/mL (≈ 0.391 µM) in test [2] and 21 µg/mL (≈ 45.6 µM) in test [4]. In test [3], the ED50 is above 100 mg/kg.

Take `CO/N=C1/[C@@H](Cn2cncn2)[C@H](COc2ccc(OC(C)(C)C)cc2)CC[C@@]1(C)CCn1ccnc1`: the IC80 in test [1] was 4.6 µg/mL (≈ 9.3 µM); in test [2] it was 0.22 µg/mL (≈ 0.445 µM); in test [4] it was 13 µg/mL (≈ 26.3 µM). This molecule yielded a median effective dose (ED50) in test [3] above 100 mg/kg.
